Data as given in patent US5229267A, “Assay for evaluating inhibition of PMN elastase by N-substituted azetidinones” (Merck & Co., Inc., priority 1991, dated 1993).

System: antibody R674
Experiment: RIA: displacement of tritium labeled Compound A' or B' from polyclonal rabbit antiserum R674
Format: binding, New Zealand white rabbits
Settings: up to 10 μM (the highest concentration tested)
Procedure: Antibodies for the reactivation product of formula II were produced by the methods described in Basic methodology of Vituakaitis, Meth. Enzymol. 73: 46-52 (1981). Specifically, New Zealand white rabbits were immunized with Compound C (the para succinyl aminomethyl derivative of compound B'), coupled to thyroglobulin. See Scheme 3. The initial immunizations employed 1 mg of the immunogen conjugate per ml saline homogenized with 1 ml of Freund's complete adjuvant. Rabbits received a total of 0.4 ml divided over 2 intramuscular sites. Animals were boosted 30 days later receiving 0.5 mg immunogen per ml saline homogenized with 1 ml Freund's Incomplete adjuvant. […]
Antibody titer, antibody sensitivity, antibody specificity and the presence of and concentration of reactivation product in body fluids were determined by a radioimmunoassay (RIA). […]
Non-antibody-bound radioactive isotope was removed from the reaction mixture by it's absorption onto dextran-coated activated charcoal. […] The supernatant fluid was decanted into 9 ml of AQUASOL-2 scintillation fluid and radioactivity counted in a beta-counter. […] Percent specific binding was determined by subtracting the value for non-specific binding from the value of total antiserum binding and then dividing by the total radioactivity added.
Sensitivity of the antisera R674 (2nd bleed) was determined in the above RIA. […]

Compound	effect in RIA (displacement)
N=C(N)NCCC[C@H](N)C(=O)O [arginine]	without affect
NC(N)=O [Urea, urea]	without affect
